From publication PMC10830684, “Effect of Oregon grape root extracts on P-glycoprotein mediated transport in in vitro cell lines” (Journal of Pharmacy & Pharmaceutical Sciences, 2024)
Counter-ions that a name gives are not always drawn. Like-named read-outs stand apart in the source and are kept apart here. Values belong to the compound of their own block, whether it stands above or below them.

How the values were obtained:
human MDR1 mRNA = test: Real time RT-PCR of MDR1 mRNA in Caco-2 cells; type: cell-based; settings: 100 µM, positive control
Caco-2 cells [1] = test: 14C-mannitol permeability (monolayer integrity) in Caco-2 cells; type: in vitro ADME, human; settings: various treatment conditions, throughout the entire experiment
Description: (§1) The human intestinal epithelial cell line, LS-180 was purchased from American Type Culture Collection (ATCC) (Manassas, VA, USA) and grown in Minimum Essential Medium supplemented with 10% FBS. The Caco-2 cells were obtained from ATCC. MDCKII-MDR1 and MDCKII wild-type cell lines were a generous gift from Dr. Piet Borst (The Netherlands Cancer Research Institute). Both Caro-2 and MDCKII cells were grown in DMEM, 10% FBS, 0.1 mM non-essential amino acids, and 0.01% penicillin/streptomycin [38, 39]. […] For the transport experiments, cells were seeded, 3.0 × 10^5cells/well, onto 6-well Transwell® inserts 4.71 cm^2 (Corning Costar, Cambridge, MA, USA) and maintained until use on Days 21–25 (Caco-2, passages 23–30) and Days 6–7 (MDCKII-MDR1 and MDCKII wild-type). The integrity of the monolayers was assessed by measuring transepithelial electrical resistance (TEER) using a World Precision Instrument, EVOM (Sarasota, FL, USA) and evaluating ^14C-mannitol transport. […] For the real time RT-PCR, cells were seeded at 6 × 10^5 cells/well (Caco-2) and 1 × 10^6 cells/well (LS-180) onto 6-well Transwell® inserts 4.71 cm^2 and grown for 7 (Caco-2) and 6 (LS-180) days.

[2] = as above; type: in vitro ADME, human; settings: human, Caco-2 cells, read-out: apparent permeability (Papp)
Description: as §1

[3] = 14C-mannitol permeability (monolayer integrity) in MDCKII-MDR1 cells; type: in vitro ADME, Canine; settings: dog, MDCK-MDR1, read-out: apparent permeability (Papp)
Description: as §1

[4] = 14C-mannitol permeability (monolayer integrity) in MDCKII wild-type cells; type: in vitro ADME, Canine; settings: dog, MDCK, read-out: apparent permeability (Papp)
Description: as §1

MDCKII wild-type cells = test: MTT cytotoxicity assay in MDCKII wild-type cells; type: cell-based, Canine; settings: MDCKII-WT cells, 4 hours exposure
Source text: (§2) We initiated cytotoxicity experiments with the Caco-2, MDCKII-MDR1 and MDCKII-wild type cells on Day 7 (Caco-2) and Day 4 (MDCKII-MDR1 and MDCKII-wild type) after the initial plating of the cells at 2.5 × 10^3 cells/well in 48-well plates (Becton Dickinson, Franklin Lakes, NJ, USA). See details of preparation for the cytotoxicity experiments in Supplementary Material.
(§3) We initiated cytotoxicity experiments with the Caco-2, MDCKII-MDR1 and MDCKII-wild type cells on Day 7 (Caco-2) and Day 4 (MDCKII-MDR1 and MDCKII-wild type) after the initial plating of the cells at 2.5x10^3 cells/well in 48-well plates (Becton Dickinson, Franklin Lakes, NJ, USA). Stock solutions of 10 mM berberine or berbamine were prepared by dissolving the compounds in DMSO (berberine) or distilled water (berbamine). […] The final concentration of DMSO was 0.003% (v/v), 0.03% (v/v), 0.3% (v/v), 1% (v/v), 1.5% (v/v), and 3% (v/v) DMSO/culture medium for 0.3 μM, 3 μM, 30 μM, 100 μM, ,150 μM, and 300 μM, respectively. The final concentration of ethanol was 0.15% (v/v) ethanol/culture medium. Ketoconazole (75 µM) was used as a positive control and no treatment (medium alone) was used as a negative control for each experiment.
(§4) The LDH enzymatic activities were assayed using the method of Mitchell et al.(1). […] Enzyme leakage into the medium was expressed as the percentage of total cellular LDH. The MTT (3-(4,5-dimethythiazole-2yl)-2,5-diphenyl tetrazolium bromide) reduction assay was done according to Mosmann (2). This assay was conducted immediately with the same cells used in the LDH study. The results were expressed as the percentage of negative controls.

Caco-2 cells [5] = test: MTT cytotoxicity assay in Caco-2 cells; type: cell-based, human; settings: for MTT assay: 4 hours exposure
Source text: as §2
(§5) We initiated cytotoxicity experiments with the Caco-2, MDCKII-MDR1 and MDCKII-wild type cells on Day 7 (Caco-2) and Day 4 (MDCKII-MDR1 and MDCKII-wild type) after the initial plating of the cells at 2.5x10^3 cells/well in 48-well plates (Becton Dickinson, Franklin Lakes, NJ, USA). Stock solutions of 10 mM berberine or berbamine were prepared by dissolving the compounds in DMSO (berberine) or distilled water (berbamine).
as §4

P-glycoprotein (MDR1) = molecular target: T1, P-glycoprotein (MDR1) (Homo sapiens, UniProt P08183); test: Transepithelial transport of berberine and berbamine across MDCKII-MDR1 cells; type: in vitro ADME; settings: dog, MDCK-MDR1
T1 construct: expressed in transfected cells; host or cells: MDCKII-MDR1 (Madin-Darby canine kidney II cells overexpressing MDR1)
Description: Transport of ^3H-CsA and ^3H-digoxin (0.5 µM and 1.0 µCi), MDR1 substrates, were performed using transport buffer consisting of HBSS with 10 mM HEPES and 25 mM D-glucose at a pH of 6.8 for the apical (A) compartment and 7.4 for the basolateral (B) compartment. Experiments were performed at 37°C, 5% CO2, and 95% relative humidity. Cells in the Transwell® inserts were washed 3 times with a transport buffer and allowed to equilibrate for 30 min prior to the addition of test compounds. […] To evaluate the efflux mechanism involved with berberine and berbamine, 100 µM of berberine and berbamine were placed in the donor chamber and 100 µL samples were collected in the receiver chamber at 0, 0.5, 1.0, 1.5, 2.0, 2.5, and 3.0 h and analyzed by HPLC. Each experiment was performed in duplicate and repeated for each condition tested. […] A 100 µL sample was taken from the donor chamber at 3 h in order to calculate the mass balance of radioactivity to determine if adsorption to the cell culture transport apparatus had occurred. Each sample was placed in 0.9 mL of scintillation fluor (Cytoscint ES, ICN, Cosa Mesa, CA, USA) and read on a Beckman LS 6500 (Palo Alto, CA, USA) scintillation counter for ^3H activity. […]
The apparent permeability (Papp) was calculated using the following equation [40]: Papp=dQ/dt×1/A×C0 […]

Caco-2 cells [6] = test: Transepithelial transport of berberine and berbamine across Caco-2 cells; type: in vitro ADME, human
Description: (§6) Transport of ^3H-CsA and ^3H-digoxin (0.5 µM and 1.0 µCi), MDR1 substrates, were performed using transport buffer consisting of HBSS with 10 mM HEPES and 25 mM D-glucose at a pH of 6.8 for the apical (A) compartment and 7.4 for the basolateral (B) compartment. Experiments were performed at 37°C, 5% CO2, and 95% relative humidity. Cells in the Transwell® inserts were washed 3 times with a transport buffer and allowed to equilibrate for 30 min prior to the addition of test compounds. […] To evaluate the efflux mechanism involved with berberine and berbamine, 100 µM of berberine and berbamine were placed in the donor chamber and 100 µL samples were collected in the receiver chamber at 0, 0.5, 1.0, 1.5, 2.0, 2.5, and 3.0 h and analyzed by HPLC. Each experiment was performed in duplicate and repeated for each condition tested. For experiments performed in “non-sink” conditions, 100 µL aliquots were taken from the donor and receiver chambers at the beginning and from the receiver chamber at 0.5, 1.0, 1.5, 2.0, 2.5, and 3.0 h. An equal volume of 100 µL was replaced in the chamber at each sample time point. “Non-sink” conditions were performed when less than 10% of compound is transported across cells during the transport experiment such that a concentration gradient was always present. For the “sink” condition experiments, the entire receiver volume was replaced at each time interval and a 100 µL aliquot was taken from the receiver volume for scintillation counting. A 100 µL sample was taken from the donor chamber at 3 h in order to calculate the mass balance of radioactivity to determine if adsorption to the cell culture transport apparatus had occurred. Each sample was placed in 0.9 mL of scintillation fluor (Cytoscint ES, ICN, Cosa Mesa, CA, USA) and read on a Beckman LS 6500 (Palo Alto, CA, USA) scintillation counter for ^3H activity. For berberine and berbamine analysis, 100 µL aliquot was assayed by HPLC.
(§7) The apparent permeability (Papp) was calculated using the following equation [40]: Papp=dQ/dt×1/A×C0
(§8) Where A is the surface area of the monolayer (4.71 cm^2) and C0 is the initial concentration of radiolabeled probe substrate in the donor compartment. dQ/dt is the slope of the steady-state rate constant. The efflux ratio was determined by dividing the Papp in the B to A direction by the Papp in the A to B direction: Efflux ratio=PappB to A/PappA to B
(§9) A Waters 2690 separations module with a Model 996 photodiode array detector with the Millennium 32 Chromatograph Manager version 3.0 software (Waters Corporation, Milford, MA, USA) was used for HPLC analysis. […] All the standards and samples were filtered (0.2 µm) prior to injection. Ten µL was injected onto a 250 × 4.6 mm i.d., […], Zorbax Eclipse X DB-C18 Column (Agilent Technologies, Palo Alto, CA, USA) with a 3.9 × 20 mm i.d. Symmetry® C18 guard column, with an isocratic mobile phase of 32:68 acetonitrile:buffer. The buffer consisted of 30 mM ammonium acetate and 14 mM TEA and was adjusted to pH 4.85 with acetic acid. A flow rate of 1 mL/min and UV absorption at 254 nm was used for analysis. The retention time of berberine and berbamine was 7.84 min and 3.03 min, respectively. The cumulative amount of transport was determined using the corresponding peak area for berberine or berbamine. The cumulative amount of berberine or berbamine transported across the cell membrane was evaluated as a functionof time. The Papp was calculated by the following equation: […]

[7] = as above; type: in vitro ADME, human; settings: human
Description: as §6, §7, §8, §9

MDCKII-MDR1 cells = test: MTT cytotoxicity assay in MDCKII-MDR1 cells; type: cell-based, Canine; settings: 4 hours exposure
Source text: as §2, §3, §4

Caco-2 cells [8] = test: LDH leakage cytotoxicity assay in Caco-2 cells; type: cell-based, human; settings: 300 µM, 4 hours exposure
Source text: as §2, §5, §4

P-glycoprotein = P-glycoprotein (Homo sapiens, UniProt P08183); test: Effect on 3H-CsA and 3H-digoxin transport in Caco-2 cells; settings: Caco-2 cells
Chain of P-glycoprotein (P08183 whole entry): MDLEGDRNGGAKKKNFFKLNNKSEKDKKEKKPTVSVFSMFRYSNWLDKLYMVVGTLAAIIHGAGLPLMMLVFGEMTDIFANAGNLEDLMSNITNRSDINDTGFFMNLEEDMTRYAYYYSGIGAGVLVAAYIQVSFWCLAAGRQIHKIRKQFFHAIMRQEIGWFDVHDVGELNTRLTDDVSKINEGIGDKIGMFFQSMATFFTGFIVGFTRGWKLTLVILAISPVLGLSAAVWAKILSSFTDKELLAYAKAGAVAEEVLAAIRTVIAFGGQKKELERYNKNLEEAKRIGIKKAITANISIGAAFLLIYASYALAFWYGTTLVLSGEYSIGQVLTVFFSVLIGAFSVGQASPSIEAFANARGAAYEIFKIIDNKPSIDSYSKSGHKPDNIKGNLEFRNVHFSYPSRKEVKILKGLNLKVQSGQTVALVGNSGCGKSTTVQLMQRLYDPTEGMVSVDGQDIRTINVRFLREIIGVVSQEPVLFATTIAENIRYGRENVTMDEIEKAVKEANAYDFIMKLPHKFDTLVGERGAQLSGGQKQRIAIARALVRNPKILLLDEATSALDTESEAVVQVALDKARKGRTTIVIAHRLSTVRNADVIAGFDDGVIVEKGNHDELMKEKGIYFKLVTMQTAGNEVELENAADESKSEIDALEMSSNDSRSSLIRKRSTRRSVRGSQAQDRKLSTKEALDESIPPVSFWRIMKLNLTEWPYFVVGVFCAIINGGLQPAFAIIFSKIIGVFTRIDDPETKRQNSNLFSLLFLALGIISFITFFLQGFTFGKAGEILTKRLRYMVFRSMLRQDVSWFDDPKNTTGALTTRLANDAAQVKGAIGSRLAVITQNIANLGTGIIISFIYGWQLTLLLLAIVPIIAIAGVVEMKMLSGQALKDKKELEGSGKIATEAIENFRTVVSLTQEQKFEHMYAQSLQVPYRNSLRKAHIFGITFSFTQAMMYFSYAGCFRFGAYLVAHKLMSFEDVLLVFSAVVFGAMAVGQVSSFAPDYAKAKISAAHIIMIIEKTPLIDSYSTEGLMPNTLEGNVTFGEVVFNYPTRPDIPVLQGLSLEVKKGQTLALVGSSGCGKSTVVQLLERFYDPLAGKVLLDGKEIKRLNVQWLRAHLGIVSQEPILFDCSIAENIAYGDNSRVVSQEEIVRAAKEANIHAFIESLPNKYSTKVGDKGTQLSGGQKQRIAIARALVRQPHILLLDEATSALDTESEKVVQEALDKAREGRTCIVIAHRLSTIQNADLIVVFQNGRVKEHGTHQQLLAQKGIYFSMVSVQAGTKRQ

T1 sequence (P08183 whole entry): as above

Compound: N[C@@H](Cc1cc(I)c(Oc2cc(I)c(O)c(I)c2)c(I)c1)C(=O)O [levothyroxine]
P-gp (MDR1) mRNA (human MDR1 mRNA): significantly increase

transport rate (Caco-2 cells [1]): less than 1 % per hour
Papp [2]: 2.09 ± 0.4 ×10⁻⁶ cm/s
Papp [3]: 2.38 ± 0.13 ×10⁻⁶ cm/s
Papp [4]: 2.16 ± 0.72 ×10⁻⁶ cm/s
Compound: OC[C@@H](O)[C@@H](O)[C@H](O)[C@H](O)CO [mannitol]

Compound: COc1cc2c3cc1Oc1c(OC)c(OC)cc4c1[C@@H](Cc1ccc(O)c(c1)Oc1ccc(cc1)C[C@@H]3N(C)CC2)N(C)CC4 [Berbamine, berbamine dihydrochloride]
MTT assay (MDCKII wild-type cells; 0.03 µM): □ (%MTT reduction is not significantly decreased compared with the negative control)
MTT assay (MDCKII wild-type cells; 0.3 µM): □ (%MTT reduction is not significantly decreased compared with the negative control)
MTT assay (MDCKII wild-type cells; 30 µM): □ (%MTT reduction is not significantly decreased compared with the negative control)
MTT assay (MDCKII wild-type cells; 100 µM): □ (%MTT reduction is not significantly decreased compared with the negative control)
MTT assay (MDCKII wild-type cells; 150 µM): □ (%MTT reduction is not significantly decreased compared with the negative control)
MTT assay (MDCKII wild-type cells; 300 µM): 64.32 ± 13.1%
MTT assay (Caco-2 cells [5]; 0.03 µM): □ (%MTT reduction is not significantly decreased compared with the negative control)
MTT assay (Caco-2 cells [5]; 0.3 µM): □ (%MTT reduction is not significantly decreased compared with the negative control)
MTT assay (Caco-2 cells [5]; 30 µM): □ (%MTT reduction is not significantly decreased compared with the negative control)
MTT assay (Caco-2 cells [5]; 100 µM): □ (%MTT reduction is not significantly decreased compared with the negative control)
MTT assay (Caco-2 cells [5]; 150 µM): □ (%MTT reduction is not significantly decreased compared with the negative control)
MTT assay (Caco-2 cells [5]; 300 µM): 64.99 ± 11.46%
earliest time of significant increase in LDH leakage and decrease in MTT reduction (Caco-2 cells [5]; 300 µM, time-response 2, 4, 6, 8 hr, data not shown): 2 h
efflux ratio at 3 h, 100 µM (P-glycoprotein (MDR1)): 27.4 ± 5.1
transport in the A to B direction (Caco-2 cells [6]; 100 µM, Caco-2 cells): 0.39 nmol/min
transport in the B to A direction (Caco-2 cells [6]; 100 µM, Caco-2 cells): 5.94 nmol/min
extent of efflux relative to berberine (Caco-2 cells [6]; Caco-2 and MDCKII-MDR1 cells): ~5 fold
efflux ratio at 3 h, 100 µM ([7]; Caco-2, 100 µM, Caco-2 cells, read-out: fold increase of Papp B to A compared with A to B): ~30
efflux ratio at 3 h, 100 µM ([7]; Caco-2, Caco-2 cells, read-out: efflux ratio): 24.2 ± 4.5
Papp A→B at 3 h, 100 µM ([7]; 100 µM, Caco-2 cells, read-out: Papp A to B direction): 2.49 ×10⁻⁶ cm/s
Papp B→A at 3 h, 100 µM ([7]; 100 µM, Caco-2 cells, read-out: Papp B to A direction): 60.3 ×10⁻⁶ cm/s
MTT assay (MDCKII-MDR1 cells; 0.03 µM): □ (%MTT reduction is not significantly decreased compared with the negative control)
MTT assay (MDCKII-MDR1 cells; 0.3 µM): □ (%MTT reduction is not significantly decreased compared with the negative control)
MTT assay (MDCKII-MDR1 cells; 30 µM): □ (%MTT reduction is not significantly decreased compared with the negative control)
MTT assay (MDCKII-MDR1 cells; 100 µM): □ (%MTT reduction is not significantly decreased compared with the negative control)
MTT assay (MDCKII-MDR1 cells; 150 µM): □ (%MTT reduction is not significantly decreased compared with the negative control)
MTT assay (MDCKII-MDR1 cells; 300 µM): □ (%MTT reduction is not significantly decreased compared with the negative control)
LDH assay (Caco-2 cells [8]): 43.88 ± 7.44%
lowest concentration with significant decrease of B to A transport of 0.5 µM 3H-CsA (P-glycoprotein): 30 µM
